Assay results from US9884862B2, “Pyridopyrimidinedione derivatives” (Novartis AG, priority 2014, dated 2018).
Where two headings read alike, the source gives them in different places.

Experiments:
CFTR-Y122X = CFTR-Y122X assay (dual reporter isogenic Hek293 cell lines, Renilla luminescence readthrough); assay type: cell-based; conditions: for Emax / AC50 / Amax: nonsense mutation suppression, 24 h incubation, tested up to 100 μM; for Emax / Amax: 100% = 14 mM paromomycin; for Emax: read-out: Amax
Source text: Activity of compounds of the present invention was examined in recombinant, dual reporter isogenic Hek293 cell lines (“CFTR-Y122X assay”). The engineered reporter constructs contained the 18 bp sequence stretch corresponding to a common Y122X PTC mutation in CFTR class I mutant patients (see Sermet-Gaudelus, BMC Medicine, 2007, 5(5)). Instead of a tyrosine (Y) in position 122 of the CFTR protein a TGA stop codon interrupts the open reading frame (Y122X) of the corresponding mRNA. This TGA stop codon triplet (followed by the pyrimidine base cytosine) is permissive to aminoglycoside mediated translational readthrough which served as positive control for high throughput screening. A corresponding TAA stop codon variant and a wildtype non mutated construct was used for confirmation and counter screening. The CFTR sequence was sandwiched between an eGFP reporter, and a triple myc tag sequence fused to a full length Renilla reporter. All sequences, including an intron containing one positioned pre-eGFP (b-globin intron) were cloned in frame. The corresponding expression constructs were stably expressed in the isogenic HEK-R4 cell host (Invitrogen Incorp.) and selected by blasticidin resistance. The isogenic integration of the construct minimizes gene dose effects and improves assay reproducibility. Stably integrated single cell derived clones were selected and characterized for aminoglycoside mediated readthrough. […] Readthrough of Y122X accumulates an intracellular localized fusion protein approximately 65.5 kDa in size as controlled by western blot analysis and immunofluorescence using an anti-renilla antibody. The eGFP reporter pre-PTC mutation serves as visual control for genetic stability of the screening clones and minimizes protein degradation of small fusion protein amounts. In the assay, compound concentration was 10 μM. In miniaturized 1536 well format 2000 cells were dispensed in 4 μl/well and incubated for 24 h at 37° C., 5% CO2. 40 nl compounds were placed on the cells with control wells containing 1 ul Paramomycin and 14.4 mM final concentration. Compounds were incubated for 24 h. Renilla Glo substrate (2.5 ul) was added and plates were centrifuged and processed for luminescence measurement using various readers. Activity calculation was done using the equation: A1(%)=100*(S−NC)/(AC−NC) where AC, NC and S correspond to active controls (injection of Stimulation buffer=100% stimulation), neutral controls (buffer injection which Iloprost EC10) and screening samples (S). NC corresponds to 0% activity whereas AC is 100% activity (14 mM paromomycin). False positive artifacts were removed in confirmation and validation screening using the same assay format followed by counterscreening using the respective wildtype construct (w/o PTC mutation) cell model. Compounds were tested up to 100 μM compound concentration.

[1] = system: alpha-L-Iduronidase W402X in Hurler patient derived fibroblast cells; experiment: Hurler patient derived fibroblast cell cultures, restored alpha-L-iduronidase activity (W402X readthrough); assay type: cell-based, human; conditions: 8 days incubation, highest concentration 20 uM; for Emax / AC50: Homo sapiens, Fibroblast, 192 h; for Emax / Amax: 14 mM paromomycin = 100% control; for Emax: read-out: Amax; for AC50: 8 point dilutions
Source text: Activity of compounds of the present invention was examined in patient derived fibroblast cells. The genotyped cells were derived from the Coriell Institute (# GM00798) and contain an in frame homozygous TGG to TAG change at nucleotide 1293 of exon 9 which results in a W402X mutation. The W402X mutation is one of the most common Hurler syndromes causing loss of function mutation. Between 60-70% of genotyped patients contain either the Q70X and/or the W402X in mutation and are classified as severe MPSI patients. This TAG stop codon triplet is permissive to aminoglycoside mediated translational readthrough which served as activity control for compound testing. Readthrough of W402X restores alpha-L-Iduronidase activity which results in removal of lysosomal accumulated Glycosaminoglycan's. Iduronidase expression could neither be detected by Taqman PCR© nor by enzyme activity or ELISA methods without compound stimulation. Compounds were tested in concentration response mode. Therefore 5000 patient cells/40 ul/well in 384 well plates were used. Compound dilutions were derived from freshly prepared 10 mM compound stock solutions. Highest concentration was 20 uM and subsequently diluted 1: 3.16 (8 point dilutions, n=4). Final DMSO concentration was below 0.5% and tested to be without effect on cell viability, growth and readthrough. Cells were incubated for 8 days with one cell media and compound exchange at day 3. Thereafter cell media was removed and cells were lysed (0.4 M Sodiumformate, 0.1% NaN3, 0.9% NaCl, 0.2% Triton, pH 3.5). Restored alpha-L-iduronidase activity in cell lysates was measured with the fluorescent 4-MU iduronide substrate (5 ul of 0.4 mM 4 Methylumbelliferyl alpha-L-iduronide/well) after 48 h incubation. Paromomycin was used as reference control (14 mM=100% control).

SMILES | Emax [1] | AC50 [1] | Emax (CFTR-Y122X; Homo sapiens, HEK293, 24 h) | AC50 (CFTR-Y122X; Homo sapiens, HEK293, 24 h) | further results
CCSc1nc2c(c(=O)n1-c1ccccc1)C(=O)C1CCCC1N2 (stereo not shown) [2-(ethylthio)-3-phenyl-5a,6,7,8,8a,9-hexahydro-3H-cyclopenta[5,6]pyrido[2,3-d]pyrimidine-4,5-dione] | – | – | – | – | suppression relative to paromomycin reference activity (CFTR-Y122X; at the above dose ranges (up to 100 μM)): less than 5%
CC(C)c1nc2c(c(=O)c3sccc3n2C)c(=O)n1-c1ccccc1 [Example 1.1, 2-isopropyl-9-methyl-3-phenylthieno[2′,3′:5,6]pyrido[2,3-d]pyrimidine-4,5(3H,9H)-dione] | 25% | 12 µM | – | – | Emax (CFTR-Y122X; Homo sapiens, HEK293): 247%; AC50 (CFTR-Y122X; Homo sapiens, HEK293): 2.2 µM
Cc1cc2c(=O)c3c(=O)n(-c4ccccc4)c(C(C)C)nc3n(C)c2s1 [Example 1.2, 2-isopropyl-7,9-dimethyl-3-phenylthieno[3′,2′:5,6]pyrido[2,3-d]pyrimidine-4,5(3H,9H)-dione] | – | 17 µM | – | – | Amax (CFTR-Y122X): 249%; AC50 (CFTR-Y122X): 13 µM; Amax [1]: 59%
Cc1cc2c(=O)c3c(=O)n(-c4ccccc4)c(C4CCC4)nc3[nH]c2s1 [Example 2.1, 2-cyclobutyl-7-methyl-3-phenylthieno[3′,2′:5,6]pyrido[2,3-d]pyrimidine-4,5(3H,9H)-dione] | 42% | 12 µM | 211% | 12 µM | –
Cc1cc2c(=O)c3c(=O)n(-c4ccccc4)c(C4CCC4)nc3n(CCN)c2s1 [Example 2.2, 9-(2-aminoethyl)-2-cyclobutyl-7-methyl-3-phenylthieno[3′,2′:5,6]pyrido[2,3-d]pyrimidine-4,5(3H,9H)-dione] | 162% | 6.9 µM | 343% | 4.3 µM | –
Cc1cc2c(s1)c(=O)c1c(=O)n(-c3ccccc3)c(C(C)C)nc1n2C [Example 2.3, 2-isopropyl-7,9-dimethyl-3-phenylthieno[2′,3′:5,6]pyrido[2,3-d]pyrimidine-4,5(3H,9H)-dione] | 39% | – | 169% | 14 µM | –
Cc1cc2c(=O)c3c(=O)n(-c4ccccc4)c(C(C)C)nc3n(C)c2s1 [Example 2.4, 2-isopropyl-7,9-dimethyl-3-phenylthieno[3′,2′:5,6]pyrido[2,3-d]pyrimidine-4,5(3H,9H)-dione] | – | – | – | 11 µM | Amax (CFTR-Y122X): 299%; Amax [1]: 13%
CC(C)c1nc2[nH]c3cscc3c(=O)c2c(=O)n1-c1ccccc1 [Example 2.5, 2-isopropyl-3-phenylthieno[3′,4′:5,6]pyrido[2,3-d]pyrimidine-4,5(3H,9H)-dione] | 16% | 1.1 µM | 113% | 23 µM | –
CC(C)c1nc2[nH]c3sccc3c(=O)c2c(=O)n1-c1ccccc1 [Example 2.6, 2-isopropyl-3-phenylthieno[3′,2′:5,6]pyrido[2,3-d]pyrimidine-4,5(3H,9H)-dione] | 6% | – | 97% | 16 µM | –
CC(C)c1nc2[nH]c3ccsc3c(=O)c2c(=O)n1-c1ccccc1 [Example 2.7, 2-isopropyl-3-phenylthieno[2′,3′:5,6]pyrido[2,3-d]pyrimidine-4,5(3H,9H)-dione] | 51% | 10 µM | 332% | 6.9 µM | –
Cc1cc2[nH]c3nc(C(C)C)n(-c4ccccc4)c(=O)c3c(=O)c2s1 [Example 2.8, 2-isopropyl-7-methyl-3-phenylthieno[2′,3′:5,6]pyrido[2,3-d]pyrimidine-4,5(3H,9H)-dione] | 65% | 10 µM | 225% | 7.9 µM | –
Cc1cc2c(=O)c3c(=O)n(-c4ccccc4)c(C4CCC4)nc3n(C)c2s1 [Example 2.9, 2-cyclobutyl-7,9-dimethyl-3-phenylthieno[3′,2′:5,6]pyrido[2,3-d]pyrimidine-4,5(3H,9H)-dione] | 96% | 3.7 µM | 207% | 2.2 µM | –
Cn1c2nc(C3CCC3)n(-c3ccccc3)c(=O)c2c(=O)c2ccsc21 [Example 2.10, 2-cyclobutyl-9-methyl-3-phenylthieno[3′,2′:5,6]pyrido[2,3-d]pyrimidine-4,5(3H,9H)-dione] | 167% | 5.5 µM | 393% | 2 µM | –
Cn1c2ccsc2c(=O)c2c(=O)n(-c3ccccc3)c(C3CCC3)nc21 [Example 2.11, 2-cyclobutyl-9-methyl-3-phenylthieno[2′,3′:5,6]pyrido[2,3-d]pyrimidine-4,5(3H,9H)-dione] | 152% | 4.5 µM | 157% | 2 µM | –
Cc1cc2c(s1)c(=O)c1c(=O)n(-c3ccccc3)c(C3CCC3)nc1n2C [Example 2.12, 2-cyclobutyl-7,9-dimethyl-3-phenylthieno[2′,3′:5,6]pyrido[2,3-d]pyrimidine-4,5(3H,9H)-dione] | 138% | 9 µM | 133% | 3 µM | –
CCc1cc2c(=O)c3c(=O)n(-c4ccccc4)c(C4CCC4)nc3n(C)c2s1 [Example 2.13, 2-cyclobutyl-7-ethyl-9-methyl-3-phenylthieno[3′,2′:5,6]pyrido[2,3-d]pyrimidine-4,5(3H,9H)-dione] | 66% | 16 µM | 118% | 6.1 µM | –
Cc1csc2c1c(=O)c1c(=O)n(-c3ccccc3)c(C3CCC3)nc1n2C [Example 2.14, 2-cyclobutyl-6,9-dimethyl-3-phenylthieno[3′,2′:5,6]pyrido[2,3-d]pyrimidine-4,5(3H,9H)-dione] | 10% | – | 114% | 13 µM | –
Cc1csc2c(=O)c3c(=O)n(-c4ccccc4)c(C4CCC4)nc3n(C)c12 [Example 2.15, 2-cyclobutyl-8,9-dimethyl-3-phenylthieno[2′,3′:5,6]pyrido[2,3-d]pyrimidine-4,5(3H,9H)-dione] | 115% | 5.7 µM | 188% | 2.6 µM | –
Cc1scc2c(=O)c3c(=O)n(-c4ccccc4)c(C4CCC4)nc3n(C)c12 [Example 2.16, 2-cyclobutyl-8,9-dimethyl-3-phenylthieno[3′,4′:5,6]pyrido[2,3-d]pyrimidine-4,5(3H,9H)-dione] | 150% | 12.3 µM | 199% | 4.6 µM | –
NC[C@@H]1O[C@H](O[C@H]2[C@@H](O)[C@H](O[C@@H]3[C@@H](O)[C@H](N)C[C@H](N)[C@H]3O[C@H]3O[C@H](CO)[C@@H](O)[C@H](O)[C@H]3N)O[C@@H]2CO)[C@H](N)[C@@H](O)[C@@H]1O [paromomycin, reference compound] | – | – | – | – | EC50 (CFTR-Y122X; Homo sapiens, HEK293, clone pursued for HTS assay development, read-out: EC50 (readthrough response of selected clone)): 1500 µM
